Experimental data as given in US8383581B2, “Short-chain peptides as parathyroid hormone (PTH) receptor agonist” (Cadila Healthcare Limited, priority 2009, dated 2013).
Where a SMILES comes first, the peptide text is derived from it. [ ]: non-standard residue; d: D form. ξ: configuration not given here. ξBip(2'-Et-4'-OMe) = CCc1cc(OC)ccc1-c1ccc(CC(N)C(=O)O)cc1; ξαMe(hhPhe) = CC(N)(CCCc1ccccc1)C(=O)O; ξαMePhe(2-F) = CC(N)(Cc1ccccc1F)C(=O)O; hArg = N=C(N)NCCCC[C@H](N)C(=O)O; NMeV = CN[C@H](C(=O)O)C(C)C; ξαMeNle = CCCCC(C)(N)C(=O)O; Ac5c = NC1(C(=O)O)CCCC1; Aib = CC(C)(N)C(=O)O

System: ovariectomised (OVX) rats
Experiment: In vivo anti-osteoporosis activity testing in OVX rat model (serum calcium, phosphate, bone parameters)
Design: species or system Female Wistar Rats
Details: po
Summary of the method: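 Female Wistar rats aged 10–11 weeks were bilaterally ovariectomised and rested 4 weeks, then treated for 6 weeks with short-chain peptides, PTH standard or nothing (n=9). Fasting overnight urine and serum taken 24 h post-dose were assayed for calcium, phosphate, acid phosphatase and TRAP. Femur, tibia and L5 underwent histomorphometry.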

SMILES	% decrease in serum PO4 Levels (mg/dl) vs control (2 mg/kg)	% increase in serum Ca^2+ Levels (mg/dl) vs control (2 mg/kg)	% decrease in serum PO4 Levels (mg/dl) vs control (0.9 mg/kg)	% increase in serum Ca^2+ Levels (mg/dl) vs control (0.9 mg/kg)
CCCCC(C)(NC(=O)[C@H](CC(C)C)NC(=O)[C@H](CCC(N)=O)NC(=O)[C@@H](NC(=O)[C@H](CCC(=O)O)NC(=O)C(C)(C)NC(=O)[C@@H](NC(=O)C1(NC(=O)[C@@H](NC)C(C)C)CCCC1)C(C)C)[C@@H](C)CC)C(=O)N[C@@H](Cc1c[nH]cn1)C(=O)N[C@@H](CCC(N)=O)C(=O)N[C@@H](CCCCNC(=N)N)C(=O)N[C@@H](C)C(=O)N[C@@H](CCCCNC(=N)N)C(=O)NC(Cc1ccc(-c2ccc(OC)cc2CC)cc1)C(=O)NC(C)(CCCc1ccccc1)C(N)=O (stereo partly shown) [Seq. ID. 929] (H-[NMeV][Ac5c]V[Aib]EIQL[ξαMeNle]HQ[hArg]A[hArg][ξBip(2'-Et-4'-OMe)][ξαMe(hhPhe)]-NH2)	90%	121%	–	–
CCCCC(C)(NC(=O)[C@H](CC(C)C)NC(=O)[C@H](CCC(N)=O)NC(=O)[C@@H](NC(=O)[C@H](CCC(=O)O)NC(=O)C(C)(C)NC(=O)[C@@H](NC(=O)C1(NC(=O)[C@@H](NC)C(C)C)CCCC1)C(C)C)[C@@H](C)CC)C(=O)N[C@@H](Cc1c[nH]cn1)C(=O)N[C@@H](CCC(N)=O)C(=O)N[C@@H](CCCCNC(=N)N)C(=O)N[C@@H](C)C(=O)N[C@@H](CCCCNC(=N)N)C(=O)NC(C)(Cc1ccccc1F)C(=O)NC(C)(CCCc1ccccc1)C(N)=O (stereo partly shown) [Seq. ID. 941] (H-[NMeV][Ac5c]V[Aib]EIQL[ξαMeNle]HQ[hArg]A[hArg][ξαMePhe(2-F)][ξαMe(hhPhe)]-NH2)	–	–	95%	99%
